Results as given in US20100311714A1, “1H-IMIDAZO[4,5-c]QUINOLINONE COMPOUNDS” (priority 2009, published 2010).
pIC50: −log10 of the molar value. Like-named read-outs stand apart in the source and are kept apart here.

What was measured:
PI3K beta = target: T1, PI3K beta (Homo sapiens, UniProt P42338); assay: PI3K beta kinase assay (Kinase-Glo luminescence); assay type: biochemical
T1 construct: for the full-length p110-b subunit are generated and fused by overlapping PCR; His tag (C); made in house; host or cells: baculovirus BV949; Tn5 (Trichoplusia ni) or TiniPro insect cells
Summary of the method: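 Kinase-Glo luminescence read out ATP left after a 60-min room-temperature reaction, started with ATP (1 μM final) on 25 nM His-tagged p85 iSH2–p110β (BV949) plus 10 μg/mL PI substrate in pH 7.5 Tris buffer. Percent inhibition at eight concentrations was fitted to a four-parameter logistic model for IC50.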

PI3K gamma = target: T2, PI3K gamma (Homo sapiens, UniProt P48736); assay: PI3K gamma kinase assay (Kinase-Glo luminescence); assay type: biochemical; conditions: read-out: PI3Kgamma/IC50
T2 construct: His tag (C); made in house; host or cells: construct from Roger Williams lab (pVL1393); baculovirus BV950; Tn5 (Trichoplusia ni) or TiniPro insect cells
Method: In a more preferred assay, the kinase reaction is performed in a final volume of 10 μL per well of a low volume non binding CORNING, 384 well black plate (Cat. No. #3676). The final concentrations of ATP and phosphatidyl inositol (PI) in the assay are 1 μM and 10 μg/mL respectively. The reaction is started by the addition of ATP.
The components of the assay are added per well as follows:
50 nL test compounds in 90% DMSO per well, in columns 1-20, 8 concentrations (⅓ and 1/3.33 serial dilution step) in single. • Low control: […] of 90% DMSO in half the wells of columns 23-24 (0.45% in final). • High control: 50 nL of reference compound (e.g. compound of Example 7 in WO 2006/122806) in the other half of columns 23-24 (2.5 μM in final). • Standard: 50 nL of reference compound as just mentioned diluted as the test compounds in columns 21-22 • 20 mL ‘buffer’ are prepared per assay: • 200 μL of 1M TRIS HCl pH7.5 (10 mM in final) • 60 μL of 1M MgCl2 (3 mM in final) • 500 μL of 2M NaCl (50 mM in final) • 100 μL of 10% CHAPS (0.05% in final) • 200 μL of 100 mM DTT (1 mM in final) • 18.94 mL of nanopure water • 10 mL ‘PI’ are prepared per assay: • 200 μL of 1 mg/ml L-alpha-Phosphatidylinositol (Liver Bovine, Avanti Polar Lipids Cat. No. 840042C MW=909.12) prepared in 3% OctylGlucoside (10 μg/ml in final) • 9.8 mL of ‘buffer’ • 10 mL ‘ATP’ are prepared per assay: • 6.7 μL of 3 mM stock of ATP giving a final concentration of 1 μM per well • 10 mL of ‘buffer’ • 2.5 mL of each PI3K construct are prepared per assay in ‘PI’ with the following final concentration: • 10 nM PI3K alfa EMV B1075 • 25 nM beta EMV BV949 • 10 nM delta EMV BV1060 • 150 nM gamma EMV BV950 • 5 μL of ‘PI/PI3K’ are added per well. • 5 μl ‘ATP’ are added per well to start the reaction. • The plates are then incubated at room temperature for 60 minutes (alfa, beta, delta) or 120 minutes (gamma). • The reaction is terminated by the addition of 10 μL Kinase-Glo (Promega Cat. No. #6714). • The assay plates are read after 10 minutes in Synergy 2 reader (BioTek, Vermont USA) with an integration time of 100 milliseconds and sensitivity set to 191. • Output: The High control is around 60′000 counts and the Low control is 30′000 or lower • This luminescence assay gives a useful Z′ ratio between 0.4 and 0.7
PI3K gamma is purified in two chromatographic steps: immobilized metal affinity chromatography (IMAC) on a Ni Sepharose resin (GE Healthcare) and gel filtration (GFC) utilizing a Superdex 200 26/60 column (GE Healthcare). All buffers are chilled to 4° C. and lysis is performed chilled on ice. Column fractionation is performed rapidly at room temperature. Typically frozen insect cells are lysed in a hypertonic lysis buffer and applied to a prepared IMAC column. The resin is washed with 3-5 column volumes of lysis buffer, followed by 3-5 column volumes wash buffer containing 45 mM imidazole, and the target protein is then eluted with a buffer containing 250 mM imidazole. Fractions are analyzed by Coomassie stained SDS-PAGE gels, and fractions containing target protein are pooled and applied to a prepared GFC column. Fractions from the GFC column are analyzed by Coomassie stained SDS-PAGE gels, and fractions containing target protein are pooled. The final pool is dialyzed into a storage buffer containing 50% glycerol and stored at −20° C. The final pool is assayed for activity in the phosphoinostitol kinase assay.
IC50 is determined by a four parameter curve fitting routine that comes along with “excel fit”. A 4 Parameter logistic equation is used to calculate IC50 values (IDBS XLfit) of the percentage inhibition of each compound at 8 concentrations (usually 10, 3.0, 1.0, 0.3, 0.1, 0.030, 0.010 and 0.003 μM). Alternatively, IC50 values are calculated using idbsXLfit model 204, which is a 4 parameter logistic model.

T2 sequence (P48736 144-1102 limits assumed): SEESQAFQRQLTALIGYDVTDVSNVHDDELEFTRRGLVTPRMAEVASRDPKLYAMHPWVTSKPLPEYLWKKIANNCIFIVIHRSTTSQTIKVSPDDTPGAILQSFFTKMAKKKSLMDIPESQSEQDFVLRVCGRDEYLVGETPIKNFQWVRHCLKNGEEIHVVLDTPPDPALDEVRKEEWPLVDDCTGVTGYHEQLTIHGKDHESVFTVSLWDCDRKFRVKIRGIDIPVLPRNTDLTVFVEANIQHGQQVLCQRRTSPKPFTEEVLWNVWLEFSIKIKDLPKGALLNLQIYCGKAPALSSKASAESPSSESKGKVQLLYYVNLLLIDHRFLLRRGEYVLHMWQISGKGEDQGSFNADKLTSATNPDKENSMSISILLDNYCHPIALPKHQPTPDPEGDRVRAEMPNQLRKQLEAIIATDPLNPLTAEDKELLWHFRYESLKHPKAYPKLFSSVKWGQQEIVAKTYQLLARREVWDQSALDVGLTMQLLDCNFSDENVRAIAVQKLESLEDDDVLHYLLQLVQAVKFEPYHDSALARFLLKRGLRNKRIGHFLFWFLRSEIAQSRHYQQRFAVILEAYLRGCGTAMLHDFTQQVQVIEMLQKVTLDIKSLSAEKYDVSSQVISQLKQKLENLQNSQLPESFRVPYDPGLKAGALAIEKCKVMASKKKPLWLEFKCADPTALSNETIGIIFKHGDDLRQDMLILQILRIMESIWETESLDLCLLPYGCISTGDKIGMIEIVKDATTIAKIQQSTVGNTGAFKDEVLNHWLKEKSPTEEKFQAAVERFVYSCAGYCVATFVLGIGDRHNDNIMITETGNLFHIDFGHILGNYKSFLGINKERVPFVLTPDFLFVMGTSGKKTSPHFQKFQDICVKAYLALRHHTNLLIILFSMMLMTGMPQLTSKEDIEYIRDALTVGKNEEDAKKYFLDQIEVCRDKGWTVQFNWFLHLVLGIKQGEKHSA
T1 sequence (P42338 with tags, fused parts or gaps limits assumed): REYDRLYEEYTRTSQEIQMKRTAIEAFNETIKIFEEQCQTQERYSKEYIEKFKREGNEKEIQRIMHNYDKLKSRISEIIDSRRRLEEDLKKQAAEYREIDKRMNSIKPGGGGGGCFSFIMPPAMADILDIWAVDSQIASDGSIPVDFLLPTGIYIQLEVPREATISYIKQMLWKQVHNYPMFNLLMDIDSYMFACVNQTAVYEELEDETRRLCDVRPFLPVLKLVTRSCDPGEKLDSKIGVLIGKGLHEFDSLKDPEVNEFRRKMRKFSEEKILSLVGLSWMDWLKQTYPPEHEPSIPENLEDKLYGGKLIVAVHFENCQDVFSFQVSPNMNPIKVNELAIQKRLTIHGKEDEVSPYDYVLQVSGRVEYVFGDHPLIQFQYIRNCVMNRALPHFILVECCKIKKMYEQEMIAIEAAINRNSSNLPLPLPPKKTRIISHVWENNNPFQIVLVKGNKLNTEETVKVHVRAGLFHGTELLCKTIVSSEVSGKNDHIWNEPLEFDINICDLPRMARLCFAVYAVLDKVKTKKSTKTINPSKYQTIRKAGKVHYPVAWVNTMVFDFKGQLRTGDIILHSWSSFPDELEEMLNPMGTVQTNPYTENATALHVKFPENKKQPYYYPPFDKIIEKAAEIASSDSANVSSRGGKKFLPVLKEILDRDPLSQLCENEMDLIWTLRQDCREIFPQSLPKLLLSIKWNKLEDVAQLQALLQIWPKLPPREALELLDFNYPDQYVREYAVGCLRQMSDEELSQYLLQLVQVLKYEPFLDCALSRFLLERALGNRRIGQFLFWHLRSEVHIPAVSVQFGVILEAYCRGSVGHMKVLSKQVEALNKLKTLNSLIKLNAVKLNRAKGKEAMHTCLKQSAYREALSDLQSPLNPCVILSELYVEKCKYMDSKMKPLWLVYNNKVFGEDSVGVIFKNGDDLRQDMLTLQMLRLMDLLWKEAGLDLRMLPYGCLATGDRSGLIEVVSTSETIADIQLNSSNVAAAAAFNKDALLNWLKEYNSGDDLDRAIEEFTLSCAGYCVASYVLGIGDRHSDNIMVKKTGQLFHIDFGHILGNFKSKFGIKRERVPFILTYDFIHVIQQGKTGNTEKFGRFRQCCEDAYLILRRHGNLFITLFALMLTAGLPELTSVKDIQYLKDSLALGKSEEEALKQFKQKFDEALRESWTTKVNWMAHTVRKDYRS

pIC50 (PI3K beta; read-out: PI3Kbeta/IC50)	pIC50 (PI3K gamma)	pIC50 (PI3K beta; read-out: EPK_PI3Kbeta/IC50)	Structure (SMILES)
6.78	6.48	–	CNc1ncc(-c2ccc3ncc4c(c3c2)n(-c2cccnc2C)c(=O)n4C)cn1 [Example 2.2, 3-Methyl-8-(2-methylamino-pyrimidin-5-yl)-1-(2-methyl-pyridin-3-yl)-1,3-dihydro-imidazo[4,5-c]quinolin-2-one]
6.53	6.44	–	COc1ccc(-c2ccc3ncc4c(c3c2)n(-c2cccnc2)c(=O)n4C)cc1OC [Example 5.2, 8-(3,4-Dimethoxy-phenyl)-3-methyl-1-pyridin-3-yl-1,3-dihydro-imidazo[4,5-c]quinolin-2-one]
6.24	6.23	–	CCOc1ccc(-c2ccc3ncc4c(c3c2)n(-c2cccnc2C)c(=O)n4C)cn1 [Example 2.1, 8-(6-Ethoxy-pyridin-3-yl)-3-methyl-1-(2-methyl-pyridin-3-yl)-1,3-dihydro-imidazo[4,5-c]quinolin-2-one]
6.58	6.42	–	COc1ccc(-c2ccc3ncc4c(c3c2)n(-c2cccnc2)c(=O)n4C)cn1 [Example 5.4, 8-(6-Methoxy-pyridin-3-yl)-3-methyl-1-pyridin-3-yl-1,3-dihydro-imidazo[4,5-c]quinolin-2-one]
6.30	6.68	–	CCOc1ccc(-c2ccc3ncc4c(c3c2)n(-c2cccnc2OC)c(=O)n4C)cn1 [Example 1.5, 8-(6-Ethoxy-pyridin-3-yl)-1-(2-methoxy-pyridin-3-yl)-3-methyl-1,3-dihydro-imidazo[4,5-c]quinolin-2-one]
6.69	6.63	–	COc1ccc(-c2ccc3ncc4c(c3c2)n(-c2cccnc2OC)c(=O)n4C)cn1 [Example 1.1, 1-(2-Methoxy-pyridin-3-yl)-8-(6-methoxy-pyridin-3-yl)-3-methyl-1,3-dihydro-imidazo[4,5-c]quinolin-2-one]
7.64	6.88	–	COc1ncccc1-n1c(=O)n(C)c2cnc3ccc(-c4cnc(N)c(C(F)(F)F)c4)cc3c21 [Example 1.3, 8-(6-Amino-5-trifluoromethyl-pyridin-3-yl)-1-(2-methoxy-pyridin-3-yl)-3-methyl-1,3-dihydro-imidazo[4,5-c]quinolin-2-one]
–	6.29	–	COc1ccc(-c2ccc3ncc4c(c3c2)n(-c2ncccc2C)c(=O)n4C)cn1 [Example 3.13, 8-(6-Methoxy-pyridin-3-yl)-3-methyl-1-(3-methyl-pyridin-2-yl)-1,3-dihydro-imidazo[4,5-c]quinolin-2-one]
–	–	5.82	CNc1ccc(-c2ccc3ncc4c(c3c2)n(-c2ccc(N3CCCC3)nc2C)c(=O)n4C)cn1 [Example 25.1, 3-Methyl-8-(6-methylamino-pyridin-3-yl)-1-(2-methyl-6-pyrrolidin-1-yl-pyridin-3-yl)-1,3-dihydro-imidazo[4,5-c]quinolin-2-one]
–	–	6.73	Cc1nc(F)ccc1-n1c(=O)n(C)c2cnc3ccc(-c4cnc(N)c(CO)c4)cc3c21 [Example 7.17, 8-(6-Amino-5-hydroxymethyl-pyridin-3-yl)-1-(6-fluoro-2-methyl-pyridin-3-yl)-3-methyl-1,3-dihydro-imidazo[4,5-c]quinolin-2-one]
–	6.39	–	Cc1cccnc1-n1c(=O)n(C)c2cnc3ccc(-c4cnc5ccccc5c4)cc3c21 [Example 3.8, 3-Methyl-1-(3-methyl-pyridin-2-yl)-8-quinolin-3-yl-1,3-dihydro-imidazo[4,5-c]quinolin-2-one]
–	–	7.00	CNc1ncc(-c2ccc3ncc4c(c3c2)n(-c2ccc(N(C)C)nc2C)c(=O)n4C)cn1 [Example 19.1, 1-(6-Dimethylamino-2-methyl-pyridin-3-yl)-3-methyl-8-(2-methylamino-pyrimidin-5-yl)-1,3-dihydro-imidazo[4,5-c]quinolin-2-one]
6.43	6.64	–	CNc1ccc(-c2ccc3ncc4c(c3c2)n(-c2cccnc2OC)c(=O)n4C)cn1 [Example 1.4, 1-(2-Methoxy-pyridin-3-yl)-3-methyl-8-(6-methylamino-pyridin-3-yl)-1,3-dihydro-imidazo[4,5-c]quinolin-2-one]
–	–	5.70	CCOc1ccc(-c2ccc3ncc4c(c3c2)n(-c2ccc(N(C)C)nc2C)c(=O)n4C)cn1 [Example 19.3, 1-(6-Dimethylamino-2-methyl-pyridin-3-yl)-8-(6-ethoxy-pyridin-3-yl)-3-methyl-1,3-dihydro-imidazo[4,5-c]quinolin-2-one]
–	–	7.21	CCNc1cc(-c2ccc3ncc4c(c3c2)n(-c2ccc(OCCOC)nc2C)c(=O)n4C)cnc1C [Example 13.4, 8-(5-Ethylamino-6-methyl-pyridin-3-yl)-1-[6-(2-methoxy-ethoxy)-2-methyl-pyridin-3-yl]-3-methyl-1,3-dihydro-imidazo[4,5-c]quinolin-2-one]
–	–	6.10	CCOc1ccc(-c2ccc3ncc4c(c3c2)n(-c2ccc(N(C)CCOC)nc2C)c(=O)n4C)cn1 [Example 15.3, 8-(6-Ethoxy-pyridin-3-yl)-1-{6-[(2-methoxy-ethyl)-methyl-amino]-2-methyl-pyridin-3-yl}-3-methyl-1,3-dihydro-imidazo[4,5-c]quinolin-2-one]
–	–	7.72	Cc1nc(N2CC(F)(F)C2)ccc1-n1c(=O)n(C)c2cnc3ccc(-c4cncc(C(C)(C)O)c4)cc3c21 [Example 24.2, 1-[6-(3,3-Difluoro-azetidin-1-yl)-2-methyl-pyridin-3-yl]-8-[5-(1-hydroxy-1-methyl-ethyl)-pyridin-3-yl]-3-methyl-1,3-dihydro-imidazo[4,5-c]quinolin-2-one]
–	–	6.67	COCc1ncc(-c2ccc3ncc4c(c3c2)n(-c2ccc(OC)nc2OC)c(=O)n4C)cc1OC [Example 8.12, 1-(2,6-Dimethoxy-pyridin-3-yl)-8-(5-methoxy-6-methoxymethyl-pyridin-3-yl)-3-methyl-1,3-dihydro-imidazo[4,5-c]quinolin-2-one]
–	–	6.55	COCCN(C)c1ccc(-n2c(=O)n(C)c3cnc4ccc(-c5cnc6c(ccn6C)c5)cc4c32)c(C)n1 [Example 15.7, 1-{6-[(2-Methoxy-ethyl)-methyl-amino]-2-methyl-pyridin-3-yl}-3-methyl-8-(1-methyl-1H-pyrrolo[2,3-b]pyridin-5-yl)-1,3-dihydro-imidazo[4,5-c]quinolin-2-one]
